In ChEMBL document CHEMBL1145198, “Checkpoint kinase inhibitors: SAR and radioprotective properties of a series of 2-arylbenzimidazoles” (J Med Chem, 2005):

Molecular target: Serine/threonine-protein kinase Chk2 (Homo sapiens, UniProt O96017)
Experiment: Inhibition of recombinant human Chk2 kinase

Sequence of Serine/threonine-protein kinase Chk2 (O96017 whole entry): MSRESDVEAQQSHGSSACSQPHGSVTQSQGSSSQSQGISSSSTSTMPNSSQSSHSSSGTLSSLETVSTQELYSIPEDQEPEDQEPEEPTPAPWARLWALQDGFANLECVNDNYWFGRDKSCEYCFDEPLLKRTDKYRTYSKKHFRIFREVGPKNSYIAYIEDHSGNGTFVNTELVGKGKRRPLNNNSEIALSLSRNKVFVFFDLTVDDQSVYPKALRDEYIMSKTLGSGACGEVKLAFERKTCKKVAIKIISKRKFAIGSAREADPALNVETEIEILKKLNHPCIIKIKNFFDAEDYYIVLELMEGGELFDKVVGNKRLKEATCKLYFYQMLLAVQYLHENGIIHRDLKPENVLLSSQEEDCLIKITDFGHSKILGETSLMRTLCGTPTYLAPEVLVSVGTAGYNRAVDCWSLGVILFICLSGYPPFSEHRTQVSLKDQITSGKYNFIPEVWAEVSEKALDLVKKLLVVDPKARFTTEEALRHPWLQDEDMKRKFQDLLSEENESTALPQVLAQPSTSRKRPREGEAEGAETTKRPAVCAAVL

Row | IC50 [µM] | Structure (SMILES)
1 | > 10 | NC(=O)c1ccc2nc(-c3ccc(C(=O)Nc4ccc(Cl)c(Cl)c4)cc3)[nH]c2c1
2 | > 10 | CN(C)C(=O)c1ccc2[nH]c(-c3ccc(Oc4ccccc4)cc3)nc2c1
